Reference: patent US11642339B2 (THERAVANCE BIOPHARMA R&D IP, LLC, priority 2017, dated 2023)
Values joined by “and” are separate entries in the source; they are usually repeats but may differ in a detail not shown here. Equal entries are not always repeated. Where two headings read alike, the source gives them in different places.

Key:
[1] = test system: subjects with diabetic or idiopathic gastroparesis; assay: DIGEST I: GRS Summary Score 2 (Factor 2: nausea and vomiting); assay type: in vivo, human
Text: (§1) A daily proprietary patient reported outcome (PRO) tool was used to assess GP symptoms, the Gastroparesis Rating Scale (GRS), developed according to the current FDA PRO guidance. The GRS covers the following cardinal symptom domains: (1) nausea, (2) vomiting, (3) postprandial fullness/early satiety, (4) bloating, (5) upper abdominal pain, (6) gastric reflux/burning, and (7) bowel movements. The GRS symptom domains may be also categorized or grouped into Factor 1 (fullness, early satiety, bloating, upper abdominal pain, and epigastric burning) and Factor 2 (nausea and vomiting).
(§2) GRS Factor 1 (also Summary Score 1) comprised fullness/early satiety, bloating, upper abdominal pain, and epigastric burning domains, whereas GRS Factor 2 (also Summary Score 2) comprised nausea and vomiting domains.
(§3) After the psychometric evaluation the GRS was summarized using two summary scores: Summary Score 1 combined the fullness/early satiety, bloating, upper abdominal pain, and epigastric burning domains and Summary Score 2 combined the nausea and vomiting domains.

[2] = test system: subjects with diabetic or idiopathic gastroparesis
Text: as §1, §2, §3

[3] = 15 mg/day, Week 8, diabetic gastroparesis population
[4] = 15 mg/day, Week 8, idiopathic gastroparesis population
[5] = 15 mg/day, Week 12, diabetic gastroparesis population
[6] = 15 mg/day, Week 12, idiopathic gastroparesis population
[7] = 30 mg/day, Week 4, diabetic gastroparesis population
[8] = 30 mg/day, Week 4, idiopathic gastroparesis population
[9] = 30 mg/day, Week 8, diabetic gastroparesis population
[10] = 30 mg/day, Week 8, idiopathic gastroparesis population
[11] = 30 mg/day, Week 12, diabetic gastroparesis population
[12] = 30 mg/day, Week 12, idiopathic gastroparesis population
[13] = 5 mg/day, Week 4, diabetic gastroparesis population
[14] = 5 mg/day, Week 4, idiopathic gastroparesis population
[15] = 5 mg/day, Week 8, diabetic gastroparesis population
[16] = 5 mg/day, Week 8, idiopathic gastroparesis population
[17] = 15 mg/day, Week 4, diabetic gastroparesis population
[18] = 15 mg/day, Week 4, idiopathic gastroparesis population

Substance: 1-isopropyl-2-oxo-1,2-dihydroquinoline-3-carboxylic acid {(1S,3R,5R)-8-[(R)-2-hydroxy-3-(methanesulfonyl-methyl-amino)propyl]-8-azabicyclo[3.2.1]oct-3-yl}amide [Velusetrag]
- LS Mean change from baseline, GRS Summary Score 2 (Factor 2) ([1]; 15 mg/day, Week 8, ITT): −0.8 (0.10) points
- LS Mean Difference vs placebo, GRS Summary Score 2 (Factor 2) [1, 3]: 0.3 points
- LS Mean change from baseline, GRS Summary Score 2 (Factor 2) [1, 3]: −0.6 points
- LS Mean Difference vs placebo, GRS Summary Score 2 (Factor 2) [1, 4]: −0.2 (0.19) points
- LS Mean change from baseline, GRS Summary Score 2 (Factor 2) [1, 4]: −0.9 (0.14) points
- LS Mean Difference vs placebo, GRS Summary Score 2 (Factor 2) ([1]; 15 mg/day, Week 12, ITT): −0.1 (0.12) points
- LS Mean change from baseline, GRS Summary Score 2 (Factor 2) ([1]; 15 mg/day, Week 12, ITT): −0.9 (0.09) points
- LS Mean Difference vs placebo, GRS Summary Score 2 (Factor 2) [1, 5]: 0.1 points
- LS Mean change from baseline, GRS Summary Score 2 (Factor 2) [1, 5]: −0.8 points
- LS Mean Difference vs placebo, GRS Summary Score 2 (Factor 2) [1, 6]: −0.3 (0.18) points
- LS Mean change from baseline, GRS Summary Score 2 (Factor 2) [1, 6]: −1.0 (0.13) points
- LS Mean Difference vs placebo, GRS Summary Score 2 (Factor 2) ([1]; 30 mg/day, Week 4, ITT): 0.1 (0.12) points
- LS Mean change from baseline, GRS Summary Score 2 (Factor 2) ([1]; 30 mg/day, Week 4, ITT): −0.6 (0.09) points
- LS Mean Difference vs placebo, GRS Summary Score 2 (Factor 2) [1, 7]: 0.1 points
- LS Mean change from baseline, GRS Summary Score 2 (Factor 2) [1, 7]: −0.6 points
- LS Mean Difference vs placebo, GRS Summary Score 2 (Factor 2) [1, 8]: −0.0 (0.17) points
- LS Mean change from baseline, GRS Summary Score 2 (Factor 2) [1, 8]: −0.7 (0.12) points
- LS Mean Difference vs placebo, GRS Summary Score 2 (Factor 2) ([1]; 30 mg/day, Week 8, ITT): −0.0 (0.13) points
- LS Mean change from baseline, GRS Summary Score 2 (Factor 2) ([1]; 30 mg/day, Week 8, ITT): −0.8 (0.09) points
- LS Mean Difference vs placebo, GRS Summary Score 2 (Factor 2) [1, 9]: 0.1 points
- LS Mean change from baseline, GRS Summary Score 2 (Factor 2) [1, 9]: −0.8 points
- LS Mean Difference vs placebo, GRS Summary Score 2 (Factor 2) [1, 10]: −0.1 (0.18) points
- LS Mean change from baseline, GRS Summary Score 2 (Factor 2) [1, 10]: −0.8 (0.13) points
- LS Mean Difference vs placebo, GRS Summary Score 2 (Factor 2) ([1]; 30 mg/day, Week 12, ITT): −0.2 (0.12) points
- LS Mean change from baseline, GRS Summary Score 2 (Factor 2) ([1]; 30 mg/day, Week 12, ITT): −1.0 (0.08) points
- LS Mean Difference vs placebo, GRS Summary Score 2 (Factor 2) [1, 11]: −0.2 points
- LS Mean change from baseline, GRS Summary Score 2 (Factor 2) [1, 11]: −1.1 points
- LS Mean Difference vs placebo, GRS Summary Score 2 (Factor 2) [1, 12]: −0.2 (0.17) points
- LS Mean change from baseline, GRS Summary Score 2 (Factor 2) [1, 12]: −0.9 (0.12) points
- LS Mean Difference vs placebo, GRS Summary Score 1 (Factor 1) ([2]; 5 mg/day, Week 4, ITT): −0.4 points and −0.4 (0.16) points
- LS Mean change from baseline, GRS Summary Score 1 (Factor 1) ([2]; 5 mg/day, Week 4, ITT): −1.3 (0.11) points
- LS Mean Difference vs placebo, GRS Summary Score 1 (Factor 1) [2, 13]: −0.3 (0.22) points
- LS Mean change from baseline, GRS Summary Score 1 (Factor 1) [2, 13]: −1.2 (0.16) points
- LS Mean Difference vs placebo, GRS Summary Score 1 (Factor 1) [2, 14]: −0.5 (0.23) points
- LS Mean change from baseline, GRS Summary Score 1 (Factor 1) [2, 14]: −1.3 (0.16) points
- LS Mean Difference vs placebo, GRS Summary Score 1 (Factor 1) ([2]; 5 mg/day, Week 8, ITT): −0.3 (0.18) points
- LS Mean change from baseline, GRS Summary Score 1 (Factor 1) ([2]; 5 mg/day, Week 8, ITT): −1.4 (0.13) points
- LS Mean Difference vs placebo, GRS Summary Score 1 (Factor 1) [2, 15]: −0.2 (0.25) points
- LS Mean change from baseline, GRS Summary Score 1 (Factor 1) [2, 15]: −1.4 (0.18) points
- LS Mean Difference vs placebo, GRS Summary Score 1 (Factor 1) [2, 16]: −0.4 (0.26) points
- LS Mean change from baseline, GRS Summary Score 1 (Factor 1) [2, 16]: −1.4 (0.18) points
- LS Mean Difference vs placebo, GRS Summary Score 1 (Factor 1) ([2]; 5 mg/day, Week 12, ITT): −0.4 points and −0.4 (0.19) points
- LS Mean change from baseline, GRS Summary Score 1 (Factor 1) ([2]; 5 mg/day, Week 12, ITT): −1.5 (0.13) points
- LS Mean Difference vs placebo, GRS Summary Score 1 (Factor 1) ([2]; 15 mg/day, Week 4, ITT): −0.2 (0.17) points
- LS Mean change from baseline, GRS Summary Score 1 (Factor 1) ([2]; 15 mg/day, Week 4, ITT): −1.1 (0.12) points
- LS Mean Difference vs placebo, GRS Summary Score 1 (Factor 1) [2, 17]: −0.2 points
- LS Mean change from baseline, GRS Summary Score 1 (Factor 1) [2, 17]: −1.2 points
- LS Mean Difference vs placebo, GRS Summary Score 1 (Factor 1) [2, 18]: −0.4 (0.25) points
- LS Mean change from baseline, GRS Summary Score 1 (Factor 1) [2, 18]: −1.2 (0.18) points
- LS Mean Difference vs placebo, GRS Summary Score 1 (Factor 1) ([2]; 15 mg/day, Week 8, ITT): −0.1 (0.19) points
- LS Mean change from baseline, GRS Summary Score 1 (Factor 1) ([2]; 15 mg/day, Week 8, ITT): −1.2 (0.14) points
- LS Mean Difference vs placebo, GRS Summary Score 1 (Factor 1) [2, 3]: 0.0 points
- LS Mean change from baseline, GRS Summary Score 1 (Factor 1) [2, 3]: −1.2 points
- LS Mean Difference vs placebo, GRS Summary Score 1 (Factor 1) [2, 4]: −0.4 (0.28) points
- LS Mean change from baseline, GRS Summary Score 1 (Factor 1) [2, 4]: −1.3 (0.20) points
- LS Mean Difference vs placebo, GRS Summary Score 1 (Factor 1) ([2]; 15 mg/day, Week 12, ITT): −0.2 (0.2) points
- LS Mean change from baseline, GRS Summary Score 1 (Factor 1) ([2]; 15 mg/day, Week 12, ITT): −1.3 (0.15) points
- LS Mean Difference vs placebo, GRS Summary Score 1 (Factor 1) [2, 5]: 0.0 points
- LS Mean change from baseline, GRS Summary Score 1 (Factor 1) [2, 5]: −1.3 points
- LS Mean Difference vs placebo, GRS Summary Score 1 (Factor 1) [2, 6]: −0.4 (0.29) points
- LS Mean change from baseline, GRS Summary Score 1 (Factor 1) [2, 6]: −1.4 (0.22) points
- LS Mean Difference vs placebo, GRS Summary Score 1 (Factor 1) ([2]; 30 mg/day, Week 4, ITT): 0.0 (0.17) points
- LS Mean change from baseline, GRS Summary Score 1 (Factor 1) ([2]; 30 mg/day, Week 4, ITT): −0.8 (0.12) points
- LS Mean Difference vs placebo, GRS Summary Score 1 (Factor 1) [2, 7]: 0.1 points
- LS Mean change from baseline, GRS Summary Score 1 (Factor 1) [2, 7]: −0.8 points
- LS Mean Difference vs placebo, GRS Summary Score 1 (Factor 1) [2, 8]: −0.0 (0.23) points
- LS Mean change from baseline, GRS Summary Score 1 (Factor 1) [2, 8]: −0.8 (0.16) points
- LS Mean Difference vs placebo, GRS Summary Score 1 (Factor 1) ([2]; 30 mg/day, Week 8, ITT): −0.1 (0.18) points
- LS Mean change from baseline, GRS Summary Score 1 (Factor 1) ([2]; 30 mg/day, Week 8, ITT): −1.1 (0.13) points
- LS Mean Difference vs placebo, GRS Summary Score 1 (Factor 1) [2, 9]: 0.0 points
- LS Mean change from baseline, GRS Summary Score 1 (Factor 1) [2, 9]: −1.2 points
- LS Mean Difference vs placebo, GRS Summary Score 1 (Factor 1) [2, 10]: −0.2 (0.26) points
- LS Mean change from baseline, GRS Summary Score 1 (Factor 1) [2, 10]: −1.1 (0.18) points
- LS Mean Difference vs placebo, GRS Summary Score 1 (Factor 1) ([2]; 30 mg/day, Week 12, ITT): −0.1 (0.2) points
- LS Mean change from baseline, GRS Summary Score 1 (Factor 1) ([2]; 30 mg/day, Week 12, ITT): −1.2 (0.14) points
- LS Mean Difference vs placebo, GRS Summary Score 1 (Factor 1) [2, 11]: −0.1 points
- LS Mean change from baseline, GRS Summary Score 1 (Factor 1) [2, 11]: −1.3 points
- LS Mean Difference vs placebo, GRS Summary Score 1 (Factor 1) [2, 12]: −0.1 (0.28) points
- LS Mean change from baseline, GRS Summary Score 1 (Factor 1) [2, 12]: −1.1 (0.19) points
